Test results reported in US12268723B2, “Peptidomimetics for the treatment of coronavirus and picorna virus infections” (priority 2019, dated 2025).
Where two headings read alike, the source gives them in different places.

Key:
[1] = Cytotoxicity (MTS) in RD cells; assay type: cell-based, human; conditions: human, RD (rhabdomyosarcoma) cells
Description: Compounds are tested for cytotoxicity using a MTS (3-(4,5-dimethylthiazol-2-yl)-5-(3-carboxymethoxyphenyl)-2-(4-sulfophenyl)-2H-tetrazolium) method and the CC50 (IC50) values (cytotoxic concentrations of drug required to reduce cell viability by 50%) are determined for each test compound in human rhabdomyosarcoma (RD) cell line. In addition, the maximum non-toxic concentrations (MNTC) are also determined for each compound. To avoid potential drug toxicity that would interfere with viral cytopathic effect (CPE), compounds are evaluated at nontoxic concentrations. The resultant inhibitory effect of each test compound is calculated as a percentage of decrease in EV-71 CPE. Briefly, a monolayer of RD cells is prepared in a 96-well plates. The cells are then infected with 1 MOI of EV-71 (BrCr strain) followed by treatment with a single non-toxic dose of each compound in triplicate. The vehicle control wells are treated with 0.1% DMSO diluted in the working media. […] The dose-response antiviral activity of each compound is determined by a virus yield reduction assay method. Briefly, confluent monolayers of RD cells in 96-wells microplate are infected with 0.1 MOI of EV-71 followed by treatment with compounds. […] Quantitative PCR measurement was performed using StepOnePlus real time PCR system ([…]) according to manufacturer's protocol.

[2] = system: Enterovirus EV-71 (BrCr strain); test: Anti-enterovirus activity, EV-71 virus yield reduction (qRT-PCR) in RD cells; assay type: cell-based; conditions: for EC50 / EC90: 0.1 MOI, 2 days post-treatment; for EC50: read-out: EC50 against Enterovirus EV-71 (BrCr strain); for EC90: read-out: EC90 against Enterovirus EV-71 (BrCr strain); for IC50: given as IC50, read-out: IC50 against Enterovirus EV-71 (BrCr strain); for IC90: given as IC90, read-out: IC90 against Enterovirus EV-71 (BrCr strain)
Description: Compounds are tested for cytotoxicity using a MTS (3-(4,5-dimethylthiazol-2-yl)-5-(3-carboxymethoxyphenyl)-2-(4-sulfophenyl)-2H-tetrazolium) method and the CC50 (IC50) values (cytotoxic concentrations of drug required to reduce cell viability by 50%) are determined for each test compound in human rhabdomyosarcoma (RD) cell line. In addition, the maximum non-toxic concentrations (MNTC) are also determined for each compound. To avoid potential drug toxicity that would interfere with viral cytopathic effect (CPE), compounds are evaluated at nontoxic concentrations. The resultant inhibitory effect of each test compound is calculated as a percentage of decrease in EV-71 CPE. Briefly, a monolayer of RD cells is prepared in a 96-well plates. The cells are then infected with 1 MOI of EV-71 (BrCr strain) followed by treatment with a single non-toxic dose of each compound in triplicate. The vehicle control wells are treated with 0.1% DMSO diluted in the working media. The plate is then incubated for 48 h at which time the virus-control wells produced detectable CPE. To determine the probable CPE inhibitory effect of test compounds, an MTS assay is performed and effective compounds are chosen for further studies to identify the potency of the compounds and their concentration-dependent manner. The dose-response antiviral activity of each compound is determined by a virus yield reduction assay method. Briefly, confluent monolayers of RD cells in 96-wells microplate are infected with 0.1 MOI of EV-71 followed by treatment with compounds. Effective compounds are further quantified and confirmed with a virus-yield-reduction assay using an optimized in house qRT-PCR to determine the EV-71 RNA copy number after 2 days post-treatment from collected supernatants. qRT-PCR is performed using the EV-71 specific probe/primer mix and qScript-Tough master mix (Quantibio, USA). Quantitative PCR measurement was performed using StepOnePlus real time PCR system ([…]) according to manufacturer's protocol. The median effective concentration (EC50) and the concentration with 90% of inhibitory effect (EC90) are calculated using GraphPad PRISM for Windows, version 5 (GraphPad Software Inc., San Diego, CA, 2005) as the means±standard deviation (SD) of the mean from triplicate assay from three independent experiments.

SARS-CoV-2 = test: microbe, parasite or virus in culture; assay type: cell-based; conditions: Severe acute respiratory syndrome coronavirus 2, Vero cells
HCoV (OC43) = test: In vitro assay for HCoV (OC43), virus yield reduction in Huh7 cells; assay type: cell-based; conditions: Betacoronavirus 1, OC43, Huh-7, 10 μM
Text: In order to determine the potential effect of each selected compound against in vitro replication of SARS-CoV-2 in Vero cells or HCoV (OC43) in Huh7 cells, a confluent cell monolayer in a 96-wells cell culture microplate can be infected at a multiplicity of infection (MOI) of 0.1 and treated with a maximum non-toxic concentration (MNTC) of each compound. To assess the antiviral activity, a virus yield reduction assay using specific qRT-PCR for each virus can be performed.
Dose-Dependent Antiviral Assay. The antiviral effect of each compound selected through the antiviral evaluation assay can be further confirmed by virus yield reduction assay using the optimized qRT-PCR by measuring the RNA copy number for each virus in the supernatant of treated-infected cells. A positive control, such as remdesivir, can be used for each assay.
Statistical analysis. The half-maximal effective concentration (EC50) and the concentration with 90% of inhibitory effect (EC90) can be calculated using GraphPad PRISM for Windows, version 5 (GraphPad Software Inc., San Diego, CA, 2005) or the Chou and Talalay Method.
These methods were used to evaluate certain of the compounds described herein.

SMILES	CC50 [1] [nM]	EC50 ([2]; RD, 48 h) [nM]	EC90 ([2]; RD, 48 h) [nM]	also measured
CC(C)C[C@H](NC(=O)[C@H](Cc1ccc(O)cc1)NC(=O)OCc1ccccc1)C(=O)N[C@H](C=O)C[C@@H]1CCCNC1=O	> 100000	190	360	
CC(C)C[C@H](NC(=O)OCc1ccccc1)C(=O)NC(C=O)C[C@@H]1CCCNC1=O (stereo partly shown)	> 100000	50	130	
COC(=O)C1O[C@@H]1[C@H](C[C@@H]1CCNC1=O)NC(=O)[C@H](CC(C)C)NC(=O)[C@H](Cc1cccc2ccccc12)NC(=O)OCc1ccccc1 (stereo partly shown)	80200	190	360	
CC(C)C[C@H](NC(=O)[C@H](Cc1cccc2ccccc12)NC(=O)OCc1ccccc1)C(=O)N[C@H](C=O)C[C@@H]1CCNC1=O	> 100000	90	260	
CC(C)C[C@H](NC(=O)[C@H](Cc1ccc(F)cc1)NC(=O)c1cnccn1)C(=O)N[C@H](C=O)C[C@@H]1CCNC1=O	> 100000			IC50 [2]: 90 nM; IC90 [2]: 570 nM
CC(C)C[C@H](NC(=O)[C@H](Cc1cccc2ccccc12)NC(=O)OCc1ccccc1)C(=O)N[C@@H](CC1CCNC1=O)[C@H]1O[C@@H]1S(C)(=O)=O (stereo partly shown)	> 100000	1440	5020	
CC(C)C[C@H](NC(=O)[C@H](Cc1cccc2ccccc12)NC(=O)OCCc1ccccc1)C(=O)N[C@H](C=O)C[C@@H]1CCNC1=O	42500	750	2110	
CC(C)C[C@H](NC(=O)[C@H](Cc1ccc(O)cc1)NC(=O)OCc1ccccc1)C(=O)N[C@H](C=O)CC1CCNC1=O (stereo partly shown)		2300	4800	CC50 ([1]; unit inferred): > 100000 nM
CC(C)C[C@H](NC(=O)[C@H](Cc1ccc(F)cc1)NC(=O)c1cnccn1)C(=O)N[C@H](C=O)C[C@@H]1CCCNC1=O	> 100000	280	570	
CC(C)C[C@H](NC(=O)[C@H](Cc1ccc(F)cc1)NC(=O)OCc1ccccc1)C(=O)N[C@H](C=O)C[C@@H]1CCNC1=O	> 100000	30	60	
Cc1cc(C(=O)N[C@@H](CC(C)C)C(=O)N[C@H](C=O)C[C@@H]2CCCNC2=O)no1	> 100000	1100	4000	
CC(C)C[C@H](NC(=O)[C@@H](Cc1cccc2ccccc12)NC(=O)OCc1ccccc1)C(=O)N[C@H](C=O)C[C@@H]1CCCNC1=O	32500			IC50 [2]: 8.8 nM; IC90 [2]: 30 nM
Cc1cc(C(=O)N[C@@H](Cc2ccc(F)cc2)C(=O)N[C@@H](CC(C)C)C(=O)N[C@H](C=O)C[C@@H]2CCCNC2=O)no1	> 100000	9.4	16.6	
CC(C)C[C@H](NC(=O)[C@H](Cc1cccc2ccccc12)NC(=O)c1cnccn1)C(=O)N[C@H](C=O)C[C@@H]1CCNC1=O	> 100000			IC50 [2]: 17.2 nM; IC90 [2]: 64 nM
CC(C)C[C@H](NC(=O)[C@H](Cc1cccc2ccccc12)NC(=O)c1cnccn1)C(=O)N[C@H](C=O)C[C@@H]1CCCNC1=O	> 100000	15.8	47.5	
Cc1cc(C(=O)N[C@@H](Cc2cccc3ccccc23)C(=O)N[C@@H](CC(C)C)C(=O)NC(C=O)C[C@@H]2CCCNC2=O)no1 (single isomer, unassigned)	> 100000			EC50 [2]: 1.7 nM; EC90 [2]: 7.5 nM
CC(C)C[C@H](NC(=O)[C@H](Cc1cccc2ccccc12)NC(=O)OCc1ccccc1)C(=O)N[C@H](/C=C(\C#N)C(N)=O)C[C@@H]1CCCNC1=O [Compound 36, Benzyl ((S)-1-(((S)-1-(((S,E)-5-amino-4-cyano-5-oxo-1-((S)-2-oxopiperidin-3-yl)pent-3-en-2-yl)amino)-4-methyl-1-oxopentan-2-yl)amino)-3-(naphthalen-1-yl)-1-oxopropan-2-yl)carbamate]				inhibition at 10 µM (SARS-CoV-2; 10 μM, read-out: SARS-CoV-2 Inhibition at 10 μM (%)): 99.8%; inhibition at 10 µM (HCoV (OC43)): 99.9%
Cc1cc(C(=O)N[C@@H](Cc2cccc3ccccc23)C(=O)N[C@@H](CC(C)C)C(=O)N[C@H](C=O)C[C@@H]2CCCNC2=O)no1 [Compound 91, 5-Methyl-N—((S)-1-(((S)-4-methyl-1-oxo-1-(((S)-1-oxo-3-((S)-2-oxopiperidin-3-yl)propan-2-yl)amino)pentan-2-yl)amino)-3-(naphthalen-1-yl)-1-oxopropan-2-yl)isoxazole-3-carboxamide]				EC50 (SARS-CoV-2; unit inferred, read-out: Activity against SARS-CoV-2 EC50): 600 nM; EC90 (SARS-CoV-2; unit inferred, read-out: Activity against SARS-CoV-2 EC90): 2300 nM
CC(C)C[C@H](NC(=O)[C@H](Cc1cccc2ccccc12)NC(=O)OCc1ccccc1)C(=O)N[C@@H](C[C@@H]1CCCNC1=O)C(=O)C(F)(F)F [drawing 122]	65000	320	580	
CC(C)C[C@H](NC(=O)[C@H](Cc1cccc2ccccc12)NC(=O)OCc1ccccc1)C(=O)N[C@@H](C[C@@H]1CCCNC1=O)C(O)C(F)(F)F (stereo partly shown) [drawing 125]	25000	310	580	
CC(C)C[C@H](NC(=O)[C@H](Cc1cccc2ccccc12)NC(=O)OCc1ccccc1)C(=O)N[C@@H](C[C@@H]1CCCNC1=O)C(O)S(=O)(=O)O (stereo partly shown) [drawing 134]	95000			IC50 [2]: 11.8 nM; IC90 [2]: 30 nM
CC(C)C[C@H](NC(=O)[C@H](Cc1ccc(F)cc1)NC(=O)OCc1ccccc1)C(=O)N[C@H](C=O)C[C@@H]1CCCNC1=O [drawing 135]	> 100000			IC50 [2]: 10.3 nM; IC90 [2]: 29.1 nM
